{
  "source": "patent US12091406B2",
  "about": "“Lysine acetyltransferase 6A (KAT6A) inhibitors and uses thereof” (Insilico Medicine IP Limited, priority 2021, dated 2024)",
  "key": {"[1]": {"assay": "Kinetic solubility in 50 mM phosphate buffer (pH 7.4)", "format": "physicochemical", "conditions": "comparison in words, data of Table 3", "protocol": "10 μL of 10 mM in DMSO of test and control compounds was added into lower chambers of whatman miniuniprep vials, respectively. 490 μL of 50 mM PB (pH 7.4) was added into lower chambers of the whatman miniuniprep vials, respectively. The solubility samples were vortexted for at least 2 minutes. The miniuniprep vials were shaken on a shaker for 24 hours at room temperature at the speed of 800 rpm and then centrifuged for 20 minutes (eg. 4000 rpm). The miniunipreps were compressed to prepare the filtrates for injection into HPLC system to calculate the concentration with standard curve."}, "Caco-2 cells": {"tested_on": "Caco-2 cells", "assay": "Permeability in Caco-2 Assay", "format": "in vitro ADME", "conditions": "comparison in words, data of Table 4", "protocol": "Permeability of test compounds was determined in Caco-2 Assay. Caco-2 cells purchased from ATCC were seeded onto […] (PET) in 96-well Corning Insert plates at 1×10^5 cells/cm2, and refreshed medium every 4˜5 days until to the 21st to 28th day for confluent cell monolayer formation. The transport buffer in the study was HBSS with 10.0 mM HEPES at pH 7.40±0.05. Test compound was tested at 2.00 μM bi-directionally in duplicate. Digoxin was tested at 10.0 μM bi-directionally in duplicate, while nadolol and metoprolol were tested at 2.00 μM in A to B direction in duplicate. Final DMSO concentration was adjusted to less than 1%. The plate was incubated for 2 hours in CO2 incubator at 37±1° C., with 5% CO2 at saturated humidity without shaking. And all samples after mixed with acetonitrile containing internal standard were centrifuged at 3200×g for 10 min. For nadolol and metoprolol, 200 μL supernatant solution was diluted with 600 μL ultra-pure water for LC-MS/MS analysis. For digoxin and test compounds, 200 μL supernatant solution was diluted with 200 μL ultra-pure water for LC-MS/MS analysis. Concentrations of test and control compounds in starting solution, donor solution, and receiver solution were quantified by LC-MS/MS methodologies, using peak area ratio of analyte/internal standard. […]"}},
  "data": [
    {"smiles": "COc1cccc(OC)c1S(=O)(=O)Nc1noc2cc(Oc3nccs3)c3c(c12)OCCC3", "note": "[Compound 35, 2,6-dimethoxy-N-(5-(thiazol-2-yloxy)-3,4-dihydro-2H-chromeno[8,7-d]isoxazol-9-yl)benzenesulfonamide]", "values": [
      {"measurement": "kinetic solubility compared with otherwise identical compound having X as carbon", "setting": "[1]", "result": "improved kinetic solubility"},
      {"measurement": "permeability compared with reference compound", "setting": "Caco-2 cells", "result": "improved permeability"}
    ]}
  ]
}
